Experimental data reported in patent publication US9518977B2, “Microfluidic assay apparatus and methods of use” (University of Washington through its Center for …, priority 2012, dated 2016).
“Also recorded” adds a separate entry of the source.

Test system: GFP-labelled glioma cells in human GBM mouse xenograft slice
Experiment: Drug testing on human GBM xenograft slices in microfluidic apparatus
Assay type: cell-based
Conditions: 1 mM TMZ in culture medium, 48 hours selective exposure, 400 μm-thick slice, epifluorescence and confocal imaging
Excerpt: Two hundred thousand (200,000) viable glioma cells labelled by lentiviral GFP expression were orthotopically injected in the brain of an immunodeficient mouse following proper protocols. After approximately four weeks of tumor growth, the mouse was sacrificed and the mouse brain was then transported in ice cold culture medium prior to slicing. A vibratome tissue slicer was used to produce 400 μm-thick slices from a GBM xenograft mouse brain (the tissue was submerged in oxygenated ACSF during the slicing process). Then the slices were quickly transferred onto the PTFE membrane well inserts with pre-warmed culture medium and placed in an incubator. These slices were cultured for at least 24 hours (recovery) before being used for drug testing.
To proceed with drug testing, the GBM slice was transferred from the culture membrane well insert to the microfluidic apparatus by cutting the PTFE membrane out from the well insert and then placing it onto the plurality of open microchannels of the apparatus. […] Then the wells corresponding to the determined drug delivery channels were replaced with drug solution (1 mM of TMZ in culture medium; TMZ was chosen due to its clinical relevance to GBM), and then the apparatus was connected to a syringe pump with the total flow rate of 300 μL per hour in an incubator to initiate the drug delivery. […]

SMILES: Cn1nnc2c(C(N)=O)ncn2c1=O [TMZ]
- cell death (loss of GFP-labelled glioma cells) at drug exposure regions: selectivity of cell death in the TMZ region; also recorded: loss of GFP-labelled glioma cells
